The source of these data is patent US6610297B1, “Peptide immunogens for vaccination against and treatment of allergy” (Novartis AG, priority 1996, dated 2003).

Where no end group is shown, it is not given here.

One test deals with T1, FcεRI (Homo sapiens, UniProt P12319).
T1 sequence (P12319 26-257): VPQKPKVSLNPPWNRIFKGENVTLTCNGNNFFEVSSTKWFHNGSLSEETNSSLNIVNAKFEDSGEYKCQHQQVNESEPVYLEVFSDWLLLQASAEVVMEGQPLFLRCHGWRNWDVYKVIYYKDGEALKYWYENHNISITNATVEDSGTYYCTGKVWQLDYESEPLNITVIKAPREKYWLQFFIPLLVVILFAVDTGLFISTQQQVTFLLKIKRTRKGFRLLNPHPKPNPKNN
Particulars: read-out: affinity of IgE for FcεRI (Kd); cited from earlier work.

In the next test the test system is BSW17/IgE interaction. The test is described as follows: Competition ELISA: inhibition of BSW17-HRP/IgE interaction by sera of immunized rabbits. Type of test: in vivo, human. Particulars: rabbit serum 1:50, BSW17-HRP 1:50000. As for the experimental part:
After washing, mAb BSW17 labeled with horseradish peroxidase (BSW17-HRP) is added in a 1:50000 dilution in TBS containing 1.5% casein for 4 hours. Subsequent washing and staining is performed as described.

Test [1] deals with BSW17. Briefly: ELISA: binding of mimotope-displaying phage particles to coated BSW17. Particulars: FIG. 5; phage titer 10^9 cfu/ml; 10 μg coated antibody. As for the experimental part: (§1) 10 μg of BSW17 and various monoclonal antibodies are coated to the wells of COSTAR® plates following standard ELISA procedures. After blocking with BSA, the wells are incubated with 100 μl of standard ELISA incubation buffer containing bacteriophage particles obtained from phage-infected bacterial culture supernatants with a phage titer of 10^9 cfu/ml. After washing, the plates are incubated with 5 μg of horseradish peroxidase (HRP)-coupled anti-M13 antiserum (Pharmacia, Uppsala, Sweden) in incubation buffer. All incubations are carried out at room temperature for 1 hour. After final washing, phage particles bound to the coated antibodies are visualized via the bound HRP-anti M13 serum by chromogenic substrate development following standard ELISA procedure. […] As negative non-antibody control, recombinant FcεRI α-chain and as positive control, wells coated with polyclonal anti-M13 antiserum are included.

In a further test the test system is BSW17/IgE binding. The test is described as follows: Competition RIA: binding of 125I-labelled IgE to BSW17 in the presence of phage particles. More on the design: species or system human. The note with it: FIG. 6; for Inhibition of labelled IgE binding to BSW17, equal to non-labelled IgE concentration: 10^11 cfu/ml of phage particles, estimated from standard inhibition curve. On the procedure:
Bacterial cells are grown in SB containing 10 μg/ml of tetracycline and 50 μg/ml of carbenicillin to OD600=0.4, then VCS M13 helper phage is added and incubation continued for 2 hours at 37°. Then kanamycin is added to a final concentration of 70 μg/ml and incubation continued overnight. Phage particles are precipitated with polyethyleneglycol. Soft RIA plates are coated with 20 μg/ml of BSW17 in 0.1 M carbonate buffer pH 9.6 and then blocked with TBS containing 1.5% casein. Human IgE is ^125I-labelled by the chloramine-T method and 100000 cpm per well are used for binding to BSW17 coated to the RIA plates in the presence of increasing concentrations of non-labelled IgE (standard curve) or phage particles, respectively. All experiments are performed at room temperature and plates are washed 3 times with 0.9% NaCl+0.05% Tween 20, cut in pieces and each well was measured in a γ-counter for 1 minute.
Closed circles show a standard inhibition curve by unlabelled IgE to allow an estimation of inhibition of labeled IgE binding in the presence of 10^11 cfu/ml of phage particles. The inhibition achieved with the phage clones is equal to non-labelled IgE concentrations of 1 μg/ml and 1.7 μg/ml, respectively.

The subject of test [2] is 8E7, 3G9, 5H10 (monoclonal anti-Cε3 antibodies) and 5H5/F8 (against human FcεRIα). The test is described as follows: ELISA: binding of mimotope-displaying phage particles to other coated monoclonal antibodies. The note with it: FIG. 5; phage titer 10^9 cfu/ml; 10 μg coated antibody. On the procedure: as §1
The next test deals with human IgE. Briefly: Anti-IgE response in rabbits immunized with BSW17 mimotope displaying phage (dot ELISA of serum). The note with it: rabbit serum 1:200 after third boost. Type of test: in vivo. As for the experimental part: To test the feasibility of a BSW17 mimotope-based vaccine approach, rabbits are immunized with phage particles displaying BSW17 mimotope peptides and helper phage VCS M13 as control, respectively. 10^12 cfu of freshly prepared phage particles are dialyzed against PBS at 4°. 1 ml is emulsified with complete Freund's adjuvant for the first immunization, or with 1 ml incomplete Freund's adjuvant for boosting. Immunization is repeated subcutaneously every 14 days. After the third boost, 12 ml of blood are taken, clotted for 4 hours at room temperature in glass vials and centrifuged for 10 minutes at 2000 g. The supernatants are tested for the presence of anti-human IgE antibodies by ELISA. Human IgE from three different individuals (SUS11-IgE; PS-IgE; WT-IgE) is diluted in PBS at a concentration of 50 μg/ml and 1 μl aliquots are dotted onto nitrocellulose. Nitrocellulose is blocked in TBS containing 1.5% casein for 1 hour. Rabbit serum is diluted 1:200 in TBS containing 1.5% casein and incubated overnight. Washing is performed in TBS, TBS-0.05% Tween 20 and TBS for 10 minutes each. Developing goat anti-rabbit-HRP is 1:1.000 diluted in TBS containing 1.5% casein and incubated for 4 hours. Washing and staining is performed as described. […] However, in addition to a massive immune response to the bacteriophage pVIII coat protein, sera of rabbits immunized with BSW17 mimotope phages also contain strongly elevated levels of antibodies which specifically recognize human IgE: […]

Test [3] concerns BSW17. The test is described as follows: Recognition of phage-displayed peptides by BSW17 (phage display library screening). The test is classed as binding. The arrangement: key: + + +: +(++), +/− = intensity of recognition by BSW 17; +(++), +/− = intensity of recognition by BSW 17; +(++), +/− = intensity of recognition by BSW 17; + /−: +(++), +/− = intensity of recognition by BSW 17. The note with it: phage-displayed circular peptides, group A. As for the experimental part: Bacteriophage particles specifically recognized by BSW17 are identified by biopanning of phage libraries displaying linear or circular random peptides from 6 to 15 amino acid residues in length fused to phage peptides pIII and pVIII, respectively. For amplification of phage libraries, 2 ml of a liquid culture of E. coli XL-I blue grown in SB medium to OD600=1.0 are incubated with 10^10 phages for 15 minutes at room temperature. 10 ml of SB medium containing […] of tetracycline and 20 μg/ml of carbenicillin are added and 10 μl, 1 μl and 0.1 μl, respectively, are plated on LB plates containing 100 μg/ml of carbenicillin. The culture is incubated at 37° with vigorous shaking for one hour, then 100 ml of SB containing 10 μg/ml of tetracycline and 50 μg/ml of carbenicillin are added and incubation is continued for one hour. 10^12 cfu of VCS M13 helper phage are added. After 2 hours with vigorous shaking at 37°. kanamycin is added to a final concentration of 70 μg/ml and incubation continued overnight. After centrifugation at 4000 g and 4° for 20 minutes, supernatants are mixed with 38 ml of an ice-cold sterile filtered solution of 12% NaCl and 16% PEG 8000, cooled on ice for 30 minutes and centrifuged for 30 minutes at 10000 g at 4°. The phage pellet is solubilized in 2 ml of TBS containing 1.5% casein and stored at 4°. For biopanning, COSTAR® RIA plates (Costar 3690) are coated over-night at 4° with 20 μg/ml of BSW17 in 0.1 M carbonate buffer, pH 9.6, and thereafter blocked with TBS containing 1.5% casein. 2×10^11 cfu of phages are added and incubated at 37° for 2 hours, then washed ten times with PBS/0.1% Tween 20. The wells are rinsed with water and the bound phages eluted with a total of 200 μl of 0.1 M HCl, pH 2.2 for 10 minutes. Eluted phages are neutralized with 2 M Tris base and amplified as described above.
For the selection of positive clones 50 μl of a E. coli XL-I blue liquid culture grown in SB-medium to OD600=1.0 are incubated with 1 μl of a 10^−8 dilution of amplified phages after the 3rd round of panning for 15 minutes at room temperature, then plated on LB plates containing 100 μg/ml of carbenicillin and grown overnight. Colonies are randomly picked and plated on LB plates containing 100 μg/ml of carbenicillin. After 4 hours at 37°, nitrocellulose filters soaked with 10 mM of IPTG are put on top and incubation continued overnight at 32°. Filters are removed and incubated at 37° for 30 minutes in a CHCl3-atmosphere. […]
The nucleotide sequence of the DNA encoding these peptides was determined. […]

A further test addresses human IgM (Homo sapiens, UniProt P01871). The test is described as follows: Isotype specificity ELISA of sera of immunized rabbits: IgM. The test is classed as in vivo. The note with it: FIG. 12; serum 1:50. On the procedure:
The isotype specificity of the anti-human IgE immune response in the immunized rabbits is monitored by ELISA: microtiter plate wells are each coated with 3 μg of human IgE (SUS-11), IgA, IgG, and IgM, respectively, and incubated with 100 μl of serum samples, diluted 1:50 with ELISA incubation buffer. Rabbit antibodies bound by the immobilized human antibodies are detected by incubation with goat garIgG-HRP. The measured OD405 values are corrected by the read-out obtained with 1:50 diluted pre-immune serum of each corresponding rabbit, diluted 1:50. The data given in FIG. 12 represents mean values of duplicate measurements.

Sequence of BSW17/IgE interaction (P01854 1-428 isoform P01854-1): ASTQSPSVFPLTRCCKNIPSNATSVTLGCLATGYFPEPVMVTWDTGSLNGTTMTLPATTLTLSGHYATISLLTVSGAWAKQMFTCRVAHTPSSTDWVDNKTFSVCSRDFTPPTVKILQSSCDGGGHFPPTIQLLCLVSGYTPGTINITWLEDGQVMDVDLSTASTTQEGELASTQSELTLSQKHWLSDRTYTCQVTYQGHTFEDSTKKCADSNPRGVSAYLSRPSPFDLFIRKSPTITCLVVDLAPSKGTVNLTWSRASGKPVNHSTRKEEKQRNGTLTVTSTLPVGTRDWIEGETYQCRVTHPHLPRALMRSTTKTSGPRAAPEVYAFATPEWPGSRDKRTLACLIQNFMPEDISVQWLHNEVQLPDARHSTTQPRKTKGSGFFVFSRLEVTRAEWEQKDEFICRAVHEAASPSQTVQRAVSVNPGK
Sequence of human IgE (P01854 1-428 isoform P01854-1): as above
Sequence of human IgM (P01871 1-433 limits assumed): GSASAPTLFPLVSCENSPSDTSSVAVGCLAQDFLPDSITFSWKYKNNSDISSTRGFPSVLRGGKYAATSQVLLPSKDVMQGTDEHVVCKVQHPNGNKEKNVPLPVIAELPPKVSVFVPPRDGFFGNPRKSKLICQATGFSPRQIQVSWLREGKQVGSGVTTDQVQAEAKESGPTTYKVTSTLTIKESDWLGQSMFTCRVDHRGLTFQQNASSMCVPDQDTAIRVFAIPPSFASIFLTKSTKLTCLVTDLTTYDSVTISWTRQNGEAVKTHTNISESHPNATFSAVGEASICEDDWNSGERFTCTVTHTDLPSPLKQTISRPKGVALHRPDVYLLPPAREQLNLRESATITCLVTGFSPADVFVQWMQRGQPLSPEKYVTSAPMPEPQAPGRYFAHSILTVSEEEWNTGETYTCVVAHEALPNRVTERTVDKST
Sequence of human IgM (P01591 23-159 partner): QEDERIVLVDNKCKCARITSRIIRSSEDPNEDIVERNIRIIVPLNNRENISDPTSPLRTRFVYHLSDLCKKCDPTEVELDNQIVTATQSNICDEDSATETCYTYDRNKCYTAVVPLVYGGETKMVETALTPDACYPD

Take immunoglobulin E [IgE]: the equilibrium dissociation constant (Kd) at FcεRI is about 0.1 nM.
As for “CRRHNYGFWVC (cysteine pairing not given here) [PhBSW.6-9]”, in the test with BSW17/IgE interaction, the “Recognition of different IgE (% inhibition) PS-IgE” value came out at 63%, the “Recognition of different IgE (% inhibition) SUS11-IgE” value was 34%, the “Recognition of different IgE (% inhibition) WT-IgE” value turned out to be 65% and the “Recognition of different IgE (% inhibition) Zavasal-IgE” value stood at 51%. Further, in the test with BSW17 [1], the “Binding of phage particles to BSW17” value was “very specifically bind to BSW17”. Further, in the test with BSW17/IgE binding, the “Inhibition of the binding of BSW17 to IgE (in words)” value was “inhibit the binding of BSW17 to IgE” and the “Inhibition of labelled IgE binding to BSW17, equal to non-labelled IgE concentration” value is 1 µg/mL. Further, the “Binding of phage particles to other antibodies (8E7, 3G9, 5H10, 5H5/F8)” value in test [2] is reported as “to no other antibodies”. Moreover, in the test on human IgE, the “Recognition of IgE (relative OD) PS-IgE” value amounted to 8.0 ± 0.6 relative OD, the “Recognition of IgE (relative OD) SUS11-IgE” value was determined as 5.0 ± 0.2 relative OD and the “Recognition of IgE (relative OD) WT-IgE” value is 21.0 ± 1.0 relative OD. Besides, in the test on BSW17 [3], the “intensity of recognition by BSW 17” value is “++”.
For the substance “CINHRGYWVC (cysteine pairing not given here) [PhBSW.29-8]”, in the test on BSW17/IgE interaction, the “Recognition of different IgE (% inhibition) PS-IgE” value is 48%, the “Recognition of different IgE (% inhibition) SUS11-IgE” value amounted to 52%, the “Recognition of different IgE (% inhibition) WT-IgE” value worked out at 65% and the “Recognition of different IgE (% inhibition) Zavasal-IgE” value turned out to be 47%. The “Binding of phage particles to BSW17” value in the test with BSW17 [1] is given as “very specifically bind to BSW17”. Moreover, in the test on BSW17/IgE binding, the “Inhibition of the binding of BSW17 to IgE (in words)” value is given as “inhibit the binding of BSW17 to IgE” and the “Inhibition of labelled IgE binding to BSW17, equal to non-labelled IgE concentration” value was 1.7 µg/mL. Moreover, the “Binding of phage particles to other antibodies (8E7, 3G9, 5H10, 5H5/F8)” value in test [2] is “to no other antibodies”. Also, in the test on human IgE, the “Recognition of IgE (relative OD) PS-IgE” value is 9.0 ± 0.4 relative OD, the “Recognition of IgE (relative OD) SUS11-IgE” value was found to be 16.5 ± 0.7 relative OD and the “Recognition of IgE (relative OD) WT-IgE” value is recorded as 25.0 ± 1.0 relative OD. In addition, in the test on BSW17 [3], the “intensity of recognition by BSW 17” value is reported as “+ + +”.
On to cyclic GEFCRRHNYGFWVCGDPA-KLH [SDS214], for which, in the test with human IgM, the “Recognition of human IgM by serum of immunized rabbit” value is “partial recognition of human IgM”.
